# Assay results taken from ChEMBL document CHEMBL2040546, “Identification of influenza endonuclease inhibitors using a novel fluorescence polarization assay” (ACS Chem Biol, 2012).
# Experiment: Cytotoxicity
# Format: functional, Canis lupus familiaris, MDCK
# Settings: not given
row,Structure (SMILES),CC50
1,O=C(NCc1ccccc1)c1nc(-c2cnccn2)[nH]c(=O)c1O,> 60 µM
2,COc1ccc(CNC(=O)c2nc(-c3cnccn3)[nH]c(=O)c2O)cc1,> 60 µM
3,C[C@@H](NC(=O)c1nc(-c2cnccn2)[nH]c(=O)c1O)C1CCCCC1,7.1 µM
4,O=C(NCC1CC1)c1nc(-c2cnccn2)[nH]c(=O)c1O,> 60 µM
5,O=C(N[C@H](CO)c1ccccc1)c1nc(-c2cnccn2)[nH]c(=O)c1O,> 60 µM
6,C[C@H](NC(=O)c1nc(-c2cnccn2)[nH]c(=O)c1O)c1ccccc1,> 60 µM
7,O=C(NC1CCCc2ccccc21)c1nc(-c2cnccn2)[nH]c(=O)c1O (centres undefined),10.2 µM
8,O=C(O)c1nc(-c2cnccn2)nc(O)c1O,> 60 µM
9,Cc1ccc(CNC(=O)c2nc(-c3cnccn3)[nH]c(=O)c2O)cc1,> 60 µM
10,Cc1ccc([C@@H](C)NC(=O)c2nc(-c3cnccn3)[nH]c(=O)c2O)cc1,> 60 µM
11,CC(NC(=O)c1nc(-c2cnccn2)[nH]c(=O)c1O)c1ccccc1 (centres undefined),> 60 µM
12,O=C(NCc1ccc(F)cc1)c1nc(-c2cnccn2)[nH]c(=O)c1O,> 60 µM
13,C[C@@H](NC(=O)c1nc(-c2cnccn2)[nH]c(=O)c1O)c1ccccc1,> 60 µM

# Same assay, conditions: Influenza A virus, MDCK
row,Structure (SMILES),CC50
1,O=C(NCCc1ccccc1)c1nc(-c2cnccn2)[nH]c(=O)c1O,> 60 µM
